A word on the IC50: it is the point on the concentration scale where inhibition reaches its midpoint. Higher therefore signals weaker potency.

The assay relates to TNF-α. As to the kind of experiment: TNF-α inhibition in lipopolysaccharide (LPS) stimulated human monocytic cells (THP-1). The following applies: LPS (1 μg/mL) stimulated THP-1 cells, 4 hours, human TNF-α by ELISA. The format is cell-based. From the text:
In addition, Tumor Necrosis Factor, TNF-α, inhibition can be measured by utilizing lipopolysaccharide (LPS) stimulated human monocytic cells (THP-1) as described in: • i) K. M. Mohler et al., “Protection Against a Lethal Dose of Endotoxin by an Inhibitor of Tumour Necrosis Factor Processing”, Nature, 370, pp 218-220 (1994). • ii) U.S. Pat. No. 6,297,381 B1 Cirillo et al., issued Oct. 2, 2001, incorporated by reference and reproduced herein below in relevant portion thereof.
The inhibition of cytokine production can be observed by measuring inhibition of TNF-α in lipopolysaccharide stimulated THP cells. All cells and reagents are diluted in RPMI 1640 with phenol red and L-glutamine, supplemented with additional L-glutamine (total: 4 mM), penicillin and streptomycin (50 units/mL each) and fetal bovine serum (FBS 3%) (GIBCO, all conc. Final). Assay is performed under sterile conditions, only test compound preparation is non-sterile. Initial stock solutions are made in DMSO followed by dilution into RPMI 1640 2-fold higher than the desired final assay concentration. Confluent THP.1 cells (2×10^7 cells/mL, final conc.; American Type Culture Company, Rockville, Md.) are added to 96 well polypropylene round bottomed culture plates (Costar 3790; sterile) containing 125 μL test compound (2-fold concentrated) or DMSO vehicle (controls, blanks). DMSO concentration should not exceed 0.2% final. Cell mixture is allowed to preincubate for 15 minutes at 37° C., 5% CO2 prior to stimulation with lipopolysaccharide (LPS, 1 μg/mL final; Sigma L-2630, from E. coli serotype 0111.B4; stored as 1 mg/mL stock in endotoxin screened diluted H2O vehicle at −80° C.). Blanks (unstimulated) receive H2O vehicle; final incubation volume is 250 μL. Incubation (4 hours) proceeds as described above. Assay is to be terminated by centrifuging plates 5 minutes at room temperature, 1600 rpm […]; supernatants are then transferred to clean 96 well plates and stored at −80° C. until analyzed for human TNF-α by a commercially available ELISA kit (Biosource #KHC3015, Camarillo, Calif.). The calculated IC50 value is the concentration of the test compound that caused a 50% decrease in the maximal TNF-α production.
On the technique in general: ELISA stands for enzyme-linked immunosorbent assay.
In turn, `COc1ccc(N(C(=O)NCc2ccccc2F)c2ccnc(N[C@@H](C)C(C)(C)O)n2)cc1` [1-(4-Methoxyphenyl)-1-{2-[(1S)-2-hydroxy-1,2-dimethyl-propylamino]-pyrimidin-4-yl}-3-(2-fluorobenzyl)-urea] showed an IC50 of 13 nM.

The compound `COc1ccc(N(C(=O)NCc2ccccc2OC)c2ccnc(N[C@@H](C)C(C)(C)O)n2)cc1` [1-(4-Methoxyphenyl)-1-{2-[(1S)-2-hydroxy-1,2-dimethyl-propylamino]-pyrimidin-4-yl}-3-(2-methoxybenzyl)-urea] registered an IC50 of 15 nM.

`COc1ccc(N(C(=O)NCc2ccccc2Cl)c2ccnc(N[C@@H](C)C(C)(C)O)n2)cc1` [1-(4-Methoxyphenyl)-1-{2-[(1S)-2-hydroxy-1,2-dimethyl-propylamino]-pyrimidin-4-yl}-3-(2-chlorobenzyl)-urea] gave an IC50 of 9 nM.

`O=C(NCc1ccccc1Cl)N(c1ccc(F)cc1)c1ccnc(NC2CCOCC2)n1` [1-(4-Fluorophenyl)-1-[2-(tetrahydropyran-4-ylamino)-pyrimidin-4-yl]-3-(2-chlorobenzyl)-urea] displayed an IC50 of 16 nM.

As to `CCOc1ccc(N(C(=O)NCc2ccccc2Cl)c2ccnc(N[C@@H](C)COC)n2)cc1` [1-(4-Ethoxyphenyl)-1-{2-[(1S)-2-methoxy-1-methyl-ethylamino]-pyrimidin-4-yl}-3-(2-chlorobenzyl)-urea], the IC50 is 56 nM.

For `COc1ccc(N(C(=O)NCc2ccccc2C)c2ccnc(N[C@@H](C)C(C)(C)O)n2)cc1` [1-(4-Methoxyphenyl)-1-{2-[(1S)-2-hydroxy-1,2-dimethyl-propylamino]-pyrimidin-4-yl}-3-(2-methylbenzyl)-urea], half-maximal inhibition (IC50) required 37 nM.

`C[C@H](Nc1nccc(N(C(=O)NCc2ccccc2Cl)c2ccc(F)cc2)n1)C(C)(C)O` [1-(4-Fluorophenyl)-1-{2-[(1S)-2-hydroxy-1,2-dimethyl-propylamino]-pyrimidin-4-yl}-3-(2-chlorobenzyl)-urea] showed an IC50 of 14 nM. Against the preceding compound, the IC50 is about 2.6-fold lower.
